Laboratory results from US8754132B2 (The Board of Trustees of the University of Illinois, priority 2010, dated 2014).
Values joined by “and” are separate entries in the source; they are usually repeats but may differ in a detail not shown here. Equal entries are not always repeated. Structures can show the parent of a compound that is named as a salt. Where two headings read alike, the source gives them in different places.

How the values were obtained:
[1] = target: T1, human 5-HT(2C) (INI) receptor (Homo sapiens, UniProt P28335); assay: Calcium flux assay, stably transfected HEK-293 cells, 5-HT2C; type: cell-based; conditions: for Emax 2C/2A / Emax 2C/2B: Emax ratio; for 5-HT2C % Max ± SEM: percent of maximal activation by 5-HT; for Selectivity 2A/2C: EC50 ratio
T1 construct: expressed in transfected cells
T1 sequence (P28335 33-458): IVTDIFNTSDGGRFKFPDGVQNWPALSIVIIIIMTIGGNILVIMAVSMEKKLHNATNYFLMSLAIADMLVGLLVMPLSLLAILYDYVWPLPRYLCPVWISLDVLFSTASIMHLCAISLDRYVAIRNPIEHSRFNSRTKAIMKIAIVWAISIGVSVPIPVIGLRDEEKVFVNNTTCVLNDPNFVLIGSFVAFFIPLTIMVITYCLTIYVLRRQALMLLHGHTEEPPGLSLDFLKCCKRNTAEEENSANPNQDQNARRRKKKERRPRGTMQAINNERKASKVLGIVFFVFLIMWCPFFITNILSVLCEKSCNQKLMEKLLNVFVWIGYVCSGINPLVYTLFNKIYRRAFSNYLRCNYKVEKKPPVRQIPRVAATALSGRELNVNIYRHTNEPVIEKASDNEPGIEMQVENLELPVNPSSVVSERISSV

5-HT(2A) receptor [2] = target: T2, 5-HT(2A) receptor (Homo sapiens, UniProt P28223); assay: cell-based; type: cell-based; parameters: expressed in transfected cells; conditions: for 5-HT2A % Max ± SEM: percent of maximal activation by 5-HT, activation at 10 μM for compounds without EC50 value
T2 sequence (P28223 whole entry): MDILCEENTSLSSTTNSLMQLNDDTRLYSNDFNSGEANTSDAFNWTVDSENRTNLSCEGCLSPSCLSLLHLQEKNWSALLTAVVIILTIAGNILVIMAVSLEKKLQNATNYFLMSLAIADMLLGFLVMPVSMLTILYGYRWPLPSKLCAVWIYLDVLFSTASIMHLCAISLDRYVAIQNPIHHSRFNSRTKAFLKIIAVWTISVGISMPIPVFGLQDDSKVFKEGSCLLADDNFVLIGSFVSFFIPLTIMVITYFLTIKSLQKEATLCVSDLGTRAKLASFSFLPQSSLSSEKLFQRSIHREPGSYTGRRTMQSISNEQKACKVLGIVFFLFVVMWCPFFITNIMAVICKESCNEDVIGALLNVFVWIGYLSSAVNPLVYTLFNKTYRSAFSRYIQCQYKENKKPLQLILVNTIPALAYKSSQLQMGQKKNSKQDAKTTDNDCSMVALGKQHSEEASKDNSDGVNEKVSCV

5-HT(2B) receptor [3] = target: T3, 5-HT(2B) receptor (Homo sapiens, UniProt P41595); assay: Calcium flux assay, stably transfected HEK-293 cells, 5-HT2B; type: cell-based; parameters: expressed in transfected cells; conditions: for 5-HT2B % Max ± SEM: percent of maximal activation by 5-HT, activation at 10 μM for compounds without EC50 value
T3 sequence (P41595 whole entry): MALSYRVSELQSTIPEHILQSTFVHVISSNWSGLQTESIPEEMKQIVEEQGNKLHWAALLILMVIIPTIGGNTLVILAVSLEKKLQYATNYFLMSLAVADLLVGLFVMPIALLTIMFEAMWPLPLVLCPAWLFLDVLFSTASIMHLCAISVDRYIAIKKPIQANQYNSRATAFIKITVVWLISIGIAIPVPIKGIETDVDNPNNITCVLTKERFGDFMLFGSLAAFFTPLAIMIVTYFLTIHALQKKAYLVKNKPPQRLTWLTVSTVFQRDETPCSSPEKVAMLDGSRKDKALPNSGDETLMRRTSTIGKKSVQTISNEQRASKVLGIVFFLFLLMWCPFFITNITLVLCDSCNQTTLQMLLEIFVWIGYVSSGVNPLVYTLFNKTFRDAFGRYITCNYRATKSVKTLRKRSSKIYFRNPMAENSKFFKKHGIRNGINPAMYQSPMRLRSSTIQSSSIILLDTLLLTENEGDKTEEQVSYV

CYP2C9 = CYP2C9 (Homo sapiens, UniProt P11712); assay: Recombinant CYP inhibition, CYP2C9; type: in vitro ADME; conditions: recombinant CYP2C9, probe tolbutamide, substrate tolbutamide, recombinant enzyme, read-out: % Inhibition at 10 μM, CYP 2C9
CYP2C9, sequence (P11712 whole entry): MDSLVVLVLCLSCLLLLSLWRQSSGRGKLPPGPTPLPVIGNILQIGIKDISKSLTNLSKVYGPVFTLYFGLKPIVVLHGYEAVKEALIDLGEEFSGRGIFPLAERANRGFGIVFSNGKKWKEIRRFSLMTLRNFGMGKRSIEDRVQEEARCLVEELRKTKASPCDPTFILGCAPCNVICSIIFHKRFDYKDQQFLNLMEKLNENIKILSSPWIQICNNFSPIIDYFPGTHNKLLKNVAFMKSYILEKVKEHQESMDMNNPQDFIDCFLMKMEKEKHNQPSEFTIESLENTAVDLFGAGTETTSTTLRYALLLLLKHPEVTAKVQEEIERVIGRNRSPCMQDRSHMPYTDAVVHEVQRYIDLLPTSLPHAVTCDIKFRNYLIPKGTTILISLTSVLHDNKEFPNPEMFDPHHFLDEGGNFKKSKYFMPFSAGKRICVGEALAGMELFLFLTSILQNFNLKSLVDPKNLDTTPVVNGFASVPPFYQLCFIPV

[4] = system: PCP-disrupted PPI in mice; assay: Prepulse inhibition (PPI) animal study, PCP-disrupted PPI; conditions: 10 mg/kg, PCP 6 mg/kg i.p.
5-HT(2B) receptor [5] = target: T3, 5-HT(2B) receptor; assay: 5-HT(2B) antagonism, shift of 5-HT concentration curve in calcium flux experiments, Schild analysis
[6] = 10-60 mg/kg, behavioral assay, reference (15); cited from earlier work
5-HT(2A) receptor [7] = target: T2, 5-HT(2A) receptor; assay: Modulation of 5-HT(2) family receptors, Table 1, 2A Receptor; type: cell-based; conditions: for 2A Receptor ED50: NA = No activity
5-HT(2B) receptor [8] = target: T3, 5-HT(2B) receptor; assay: Modulation of 5-HT(2) family receptors, Table 1, 2B Receptor; type: cell-based; conditions: for 2B Receptor ED50: NA = No activity
5-HT(2C) receptor = target: T4, 5-HT(2C) receptor (Homo sapiens, UniProt P28335); assay: Modulation of 5-HT(2) family receptors, Table 1, 2C Receptor; type: cell-based
T4 sequence (P28335 33-458): T1 sequence (P28335 33-458)

[9] = 5-HT2C EC50 ± SEM, Table 2, second section
[10] = Table 2, second section, read-out: 5-HT2C EC50 ± SEM

## NC[C@@H]1C[C@H]1c1cc(F)ccc1OCC1CC1 (relative stereo) [Compound 12, trans-[2-(2-Cyclopropylmethyloxy-5-fluorophenyl)cyclopropyl]methylamine Hydrochloride]
[1]; Table 2, first section
  Emax 2C/2A: 6.2
  Emax 2C/2B: 38
5-HT(2A) receptor [2]; functional assays
  activation of the 5-HT(2A) receptor (in words): not to activate
5-HT(2B) receptor [3]; functional assays
  activation of the 5-HT(2B) receptor (in words): not to activate

## Nc1ccc(S(=O)(=O)Nc2ccnn2-c2ccccc2)cc1 [sulfaphenazole, reference compound]
CYP2C9
  inhibition at 20 min, 10 µM: 94.7%

## C[C@H]1CNCCc2ccc(Cl)cc21 [2 (Lorcaserin), Lorcaserin, reference compound]
[1]
  agonist potency at the 5-HT(2C) receptor (in words): low nM potency
[1]; Table 2, first section
  5-HT2C % Max ± SEM: 99% ±
[1]; Table 2, second section
  5-HT2C % Max ± SEM: 94% ±
5-HT(2A) receptor [2]; Table 2, first section
  5-HT2A % Max ± SEM: 24% ±
5-HT(2A) receptor [2]; Table 2, second section
  5-HT2A % Max ± SEM: 31% ±
5-HT(2B) receptor [3]; Table 2, first section
  5-HT2B % Max ± SEM: 93% ±
5-HT(2B) receptor [3]; Table 2, second section
  5-HT2B % Max ± SEM: 86% ±

## Cl.NC[C@@H]1C[C@H]1c1cc(F)ccc1OCC1CC1 (racemic) [Compound 12, trans-[2-(2-Cyclopropylmethyloxy-5-fluorophenyl)cyclopropyl]methylamine Hydrochloride]
[1]; EC50 at the 5-HT(2C) receptor, running text b178, functional assays
  EC50: 254 nM
[1]; Table 2, first section
  Selectivity 2A/2C: 77
  5-HT2C % Max ± SEM: 68% ±
[1]; Table 2, first section, read-out: 5-HT2C EC50 ± SEM
  EC50: 9.9 nM
5-HT(2A) receptor [2]; Table 2, first section
  5-HT2A % Max ± SEM: 11% ±
5-HT(2A) receptor [2]; read-out: 5-HT2A EC50 ± SEM
  EC50: 761 nM
5-HT(2B) receptor [3]; Table 2, first section
  5-HT2B % Max ± SEM: 2% ±

## NC[C@H]1C[C@@H]1c1cc(O)ccc1OCC1CC1 [(+)-18, (+)-trans-(S,S)-[2-(2-Cyclopropylmethyloxy-5-hydroxyphenyl)cyclopropyl]methylamine Hydrochloride]
[1]; [9]
  EC50: 9.3 nM
[1]; Table 2, second section
  Selectivity 2A/2C: 40
  Emax 2C/2A: 3.9
  Emax 2C/2B: 11
  5-HT2C % Max ± SEM: 70% ±
5-HT(2A) receptor [2]; 5-HT2A EC50 ± SEM, Table 2, second section (second screening campaign), NA: Emax ≦ 12%
  EC50: 372 nM
5-HT(2A) receptor [2]; Table 2, second section
  5-HT2A % Max ± SEM: 18% ±
5-HT(2B) receptor [3]; Table 2, second section
  5-HT2B % Max ± SEM: 6% ±
[4]
  normalization of PCP-disrupted PPI: able to normalize PCP-disrupted PPI
5-HT(2B) receptor [5]; 5-HT(2B) antagonism against 5-HT, calcium flux, n=3
  pA2 (±SEM), Schild analysis: 5.79±0.07

## Cc1cccc(C2CC2CN)c1 (stereo not shown) [Compound 1]
[6]
  antidepressant-like effects: moderate antidepressant-like effects

## trans-[2-(2-cyclopropylmethyloxy-5-fluorophenyl)cyclopropyl]-methylamine hydrochloride [(−)-12]
[1]; Table 2, second section
  Emax 2C/2A: >>
  Emax 2C/2B: 8.0
  5-HT2C % Max ± SEM: 35% ±
[1]; [10]
  EC50: 918 nM
[1]; read-out: EC50 in the 5-HT(2C) assay, running text b178
  EC50: ~2400 nM
5-HT(2A) receptor [2]; Table 2, second section
  5-HT2A % Max ± SEM: 0% ±
5-HT(2B) receptor [3]; Table 2, second section
  5-HT2B % Max ± SEM: 4% ±

## NCCc1c[nH]c2ccc(O)cc12 [Compound 5-HT, 5-Hydroxytryptamine, reference compound]
5-HT(2A) receptor [2]; Table 2, first section
  5-HT2A % Max ± SEM: 100%
5-HT(2A) receptor [2]; Table 2, second section
  5-HT2A % Max ± SEM: 100% ±

## Cl.NC[C@@H]1C[C@H]1c1cc(O)ccc1OCC1CC1 (racemic) [Compound 18, trans-[2-(2-Cyclopropylmethyloxy-5-hydroxyphenyl)cyclopropyl]methylamine Hydrochloride]
[1]; 5-HT2C EC50 ± SEM, Table 2, first section
  EC50: 19 nM
[1]; Table 2, first section
  5-HT2C % Max ± SEM: 68% ±
5-HT(2A) receptor [2]; Table 2, first section
  5-HT2A % Max ± SEM: 7% ±
5-HT(2B) receptor [3]; Table 2, first section
  5-HT2B % Max ± SEM: 6% ±

## CC(C)c1ccc(CCC2CC2)c(C2CC2CN)c1.Cl (stereo not shown) [Compound 53]
5-HT(2A) receptor [7]
  2A Receptor Emax: 92
5-HT(2B) receptor [8]
  2B Receptor Emax: 66
5-HT(2C) receptor
  2C Receptor Emax: 93

## NC[C@@H]1C[C@H]1c1cc(O)ccc1OCC1CC1 (relative stereo) [Compound 18, trans-[2-(2-Cyclopropylmethyloxy-5-hydroxyphenyl)cyclopropyl]methylamine Hydrochloride]
[1]; Table 2, first section
  Emax 2C/2A: 9.4
  Emax 2C/2B: 12

## NCC1CC1c1cc(F)ccc1OCC1CC1 [(+)-12, (+)-trans-(S,S)-[2-(2-Cyclopropylmethyloxy-5-fluorophenyl)cyclopropyl]methylamine Hydrochloride]
[1]; [10]
  EC50: 21 nM
5-HT(2A) receptor [2]; Table 2, second section (second screening campaign), NA: Emax ≦ 12%, read-out: 5-HT2A EC50 ± SEM
  EC50: 894 nM
5-HT(2B) receptor [3]; Table 2, second section, NA: Emax ≦ 12%, read-out: 5-HT2B EC50 ± SEM
  EC50: 289 nM
5-HT(2B) receptor [5]
  Kb: 3160 nM

## Cl.NCC1CC1c1cc(Br)ccc1CCC1CC1 (stereo not shown) [Compound 51]
5-HT(2A) receptor [7]
  2A Receptor ED50: no activity
5-HT(2B) receptor [8]
  2B Receptor ED50: no activity
5-HT(2C) receptor
  2C Receptor Emax: 92

## Cl.NCC1CC1c1ccccc1CCC1CC1 (stereo not shown) [Compound 50]
5-HT(2A) receptor [7]
  2A Receptor ED50: no activity
5-HT(2B) receptor [8]
  2B Receptor ED50: no activity
5-HT(2C) receptor
  2C Receptor Emax: 35 and 60

## Cc1ccc(CCC2CC2)c(C2CC2CN)c1.Cl (stereo not shown) [Compound 52]
5-HT(2A) receptor [7]
  2A Receptor Emax: 47
5-HT(2B) receptor [8]
  2B Receptor Emax: 35
5-HT(2C) receptor
  2C Receptor Emax: 98

## NCC1CC1c1cc(O)ccc1OCC1CC1 (single isomer, unassigned; (-)) [(−)-18]
[1]; [9]
  EC50: 361 nM
[1]; Table 2, second section
  Emax 2C/2A: 19
  Emax 2C/2B: >>
  5-HT2C % Max ± SEM: 51% ±
5-HT(2A) receptor [2]; Table 2, second section
  5-HT2A % Max ± SEM: 3% ±
5-HT(2B) receptor [3]; Table 2, second section
  5-HT2B % Max ± SEM: 0% ±
